Test results from US12473295B2, “Substituted straight chain spiro derivatives” (Janssen Pharmaceutica NV, priority 2019, dated 2025).
Where a name gives a salt, the structure may show the parent alone.

Legend:
[1] = target: menin/MLL (terbium chelate-labeled menin, FITC-MBM1 peptide) (Homo sapiens (Human), UniProt O00255); experiment: Menin/MLL homogenous time-resolved fluorescence (HTRF) assay; format: binding; details: HTRF-30 min incubation IC50, 30 min incubation;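 also: IC50 from percent inhibition of HTRF signal, normalized between wells without competitor and wells with a saturating competitor that displaces FITC-MBM1 from His-tagged menin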
menin/MLL (terbium chelate-labeled menin, FITC-MBM1 peptide), sequence (O00255 other isoform, or with tags, fused parts or gaps): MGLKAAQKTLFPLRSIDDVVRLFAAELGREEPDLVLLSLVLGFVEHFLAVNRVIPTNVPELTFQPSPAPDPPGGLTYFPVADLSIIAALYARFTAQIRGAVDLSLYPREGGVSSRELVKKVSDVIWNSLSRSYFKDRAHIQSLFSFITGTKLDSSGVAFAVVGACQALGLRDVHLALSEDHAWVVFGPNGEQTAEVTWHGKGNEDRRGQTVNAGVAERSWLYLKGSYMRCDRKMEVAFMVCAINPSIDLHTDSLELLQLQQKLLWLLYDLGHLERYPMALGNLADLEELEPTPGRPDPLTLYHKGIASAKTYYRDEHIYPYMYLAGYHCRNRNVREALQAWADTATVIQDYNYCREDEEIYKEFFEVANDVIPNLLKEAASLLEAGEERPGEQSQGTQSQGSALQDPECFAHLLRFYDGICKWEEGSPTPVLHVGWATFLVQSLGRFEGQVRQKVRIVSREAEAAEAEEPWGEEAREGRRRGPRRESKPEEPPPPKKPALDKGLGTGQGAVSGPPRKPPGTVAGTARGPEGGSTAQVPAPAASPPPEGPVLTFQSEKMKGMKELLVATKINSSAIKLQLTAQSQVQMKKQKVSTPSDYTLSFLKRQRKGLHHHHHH

MOLM14 cells = experiment: Proliferation assay (spheroid growth, 8 days), MOLM14; format: cell-based, human; details: Homo sapiens, MOLM-14, […], MOLM14, 8 days; read-out: spheroid assay_OneTime MOLM14 IC50;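 also: spheroid size read as confluence by live-cell imaging, compounds added at a range of concentrations with 0.3% DMSO, DMSO-treated wells = 0%, highest reference dose = low control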
OCI-AML3 cells = experiment: Proliferation assay (spheroid growth, 8 days), OCI-AML3; format: cell-based, human; details: Homo sapiens, OCI-AML-3, […], OCI-AML3, 8 days
Method in brief: (§1)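 IC50 values derive from day-8 spheroid confluence, normalized between DMSO-treated wells and the highest dose of a reference compound, fitted with a variable slope. Cells grew 8 days at 37° C under a compound concentration series in 0.3% DMSO.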

KO-52 cells = experiment: Proliferation assay (spheroid growth, 8 days), KO-52 control cell line; format: cell-based, human; details: Homo sapiens, […], read-out: spheroid assay_OneTime KO-52 IC50
Method in brief: as §1

MEIS1 mRNA = MEIS1 mRNA expression assay (Quantigene Singleplex) in MOLM14 cells; format: cell-based, human; details: Homo sapiens, MOLM-14, 48 h, 48 hours incubation;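 also: MEIS1 transcript levels read by probe hybridization and normalized to RPL28 mRNA, with IC50 fitted to fold changes across a rising compound concentration series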
[2] = Mouse PK (in vivo T1/2 and oral bioavailability); details: fasted male CD-1 mice, formulating agent HP-β-CD; for half-life: single IV 0.5 or 1.0 mg/kg; for bioavailability: single PO 5 mg/kg
Method: 3) Mouse PK (In Vivo T1/2 and Oral Bioavailability)
In vivo pharmacokinetics (PK) were assessed in fasted male CD-1 mice (age 6-8 weeks) following a single intravenous (IV, 0.5 or 1.0 mg/kg administered at 2.5 ml/kg) or oral (PO, 5 mg/kg administered at 10 ml solution/kg) dose of test article formulated in a 20% (w:vol) HP-β-CD solution or in Pyrogen free water.
Plasma and/or whole blood samples were collected from the dorsal metatarsal vein at desired timepoints via serial capillary microsampling (approx. 0.03 mL) using EDTA as an anticoagulant. Concentrations of compound in the plasma and blood samples were analyzed using a qualified LC-MS/MS method. In silico analysis of main pharmacokinetic parameters was performed using WinNonlin (Phoenix™, version 6.1) or similar software. (Results see Table 4)

[3] = Metabolic stability in mouse liver microsomes; format: in vitro ADME; details: mouse liver microsomes 0.5 mg/mL, 1 μM test compound, pH 7.4; read-out: Mouse LM Clint
Method: 4) Metabolic Stability in Human/Mouse Liver Microsomes
The objective of this study is to measure in vitro metabolic stability of test compound(s) in human and mouse liver microsomes and provide quantitative information on the rate of metabolic turnover (i.e. determination of the apparent intrinsic clearance of test).
Test items were prepared at a stock concentration of 10 mM in DMSO. For determination of metabolic turnover, a final working solution was prepared by adding 2 μL of 10 mM DMSO stock solution for test compound or positive control compounds to 198 μL of acetonitrile (100 μM final concentration).
Incubations were performed as follows: First, liver microsomes were thawed on ice and a master solution containing liver microsomes in 100 mM PBS (phosphate-buffered saline) at pH 7.4 is prepared. Next, the liver microsomes solution was added to the incubation plates and 10 mM NADPH (Nicotinamide-adenine dinucleotide phosphate) was added (MW: 833.4 g/mol; Roche Diagnostics GmbH, Germany. Dissolved in phosphate buffer (100 mmol/L, pH 7.4)). The mixture was mixed for 10 seconds and pre-warmed in the incubation plate at 37° C. for 10 minutes. The metabolic reaction was initiated with the addition of 5 μL of the 100 μM working solution for test compound or positive control compounds to incubation plate (final test item concentration=1 μM). The reaction final mixture should contain 1 mM NADPH, 0.5 mg/mL microsomes protein and 1 μM test compound or positive control compound in 100 mM PBS at pH 7.4. The percentage of organic solvent in incubation mixture is 1% with DMSO ≤0.02%.
The reaction was quenched by transferring 50 μL of the incubated mixture at selected time points into the quenching plate containing 200 μL of cold methanol. After sampling of all the timepoints the quenching plate was centrifuged at 4000 rpm for 40 minutes to precipitate protein. A total of 90 μL of the supernatant was transferred to an analysis plate and ultra-pure H2O water is added into each well for LC/MS/MS analysis. All incubations and analysis were performed in duplicate.
All calculations were carried out using Microsoft Excel. The slope value, k, was determined by linear regression of the natural logarithm of the remaining percentage of the parent drug vs. incubation time curve.
The in vitro half-life (in vitro tin) was determined from the slope value: in vitro t1/2=−(0.693/k)
Conversion of the in vitro tin (in min) into the in vitro intrinsic clearance (in vitro CLint, in μL/min/mg proteins) was done using the following equation: […]

IC50 [1] [nM]	IC50 (MOLM14 cells) [nM]	IC50 (OCI-AML3 cells) [nM]	IC50 (MEIS1 mRNA) [nM]	half-life [2] [h]	bioavailability [2] [%]	microsomal CLint at 1 μM [3] [µL/min/mg]	SMILES	IC50 (KO-52 cells) [nM]
0.049	9.8	81	9	–	–	< 7.5	CCN(C(=O)c1cc(F)ccc1Oc1nncnc1N1CCC2(C1)CN([C@H](CCCN[C@H](C)COC)C(C)C)C2)C(C)C.O=C(O)/C=C/C(=O)O [Compound 112, N-ethyl-5-fluoro-N-isopropyl-2-(5(2-((R)-6-(((R)-1-methoxypropan-2-yl)amino)-2-methylhexan-3-yl)-2,6-diazaspiro[3.4]octan-6-yl)-1,2,4-triazin-6-yl)oxy)benzamide fumarate]	> 15000
0.13	230	170	75	15	< 1	21	CCN(C(=O)c1cc(F)ccc1Oc1nncnc1N1CCC2(C1)CN([C@H](CCCN)C(C)C)C2)C(C)C [Compound 1, (R)-2-((5-(2-(6-amino-2-methylhexan-3-yl)-2,6-diazaspiro[3.4]octan-6-yl)-1,2,4-triazin-6-yl)oxy)-N-ethyl-5-fluoro-N-isopropylbenzamide formate]	> 15000
0.063	60	380	180	–	–	–	CCN(C(=O)c1cc(F)ccc1Oc1nncnc1N1CCC2(C1)CN([C@H](CCCN(C)CCC(=O)N(C)C)C(C)C)C2)C(C)C [Compound 246, (R)-2-((5-(2-(6-((3-(dimethylamino)-3-oxopropyl)(methyl)amino)-2-methylhexan-3-yl)-2,6-diazaspiro[3.4]octan-6-yl)-1,2,4-triazin-6-yl)oxy)-N-ethyl-5-fluoro-N-isopropylbenzamide formate]	> 15000
0.12	40	430	39	> 12	< 1	< 7.5	CC(C)[C@@H](CCC(C)(C)N)N1CC2(CCN(c3ncnnc3Oc3ccc(F)cc3-c3cncnc3C3CC3)C2)C1 (single isomer, unassigned) [Compound 37, (*R)-5-(6-(6-(2-(4-cyclopropylpyrimidin-5-yl)-4-fluorophenoxy)-1,2,4-triazin-5-yl)-2,6-diazaspiro[3.4]octan-2-yl)-2,6-dimethylheptan-2-amine]	> 15000

The remaining lines, values behind:

SMILES	IC50 [1] [nM]	IC50 (MOLM14 cells) [nM]	IC50 (OCI-AML3 cells) [nM]	IC50 (MEIS1 mRNA) [nM]	half-life [2] [h]	bioavailability [2] [%]	microsomal CLint at 1 μM [3] [µL/min/mg]	IC50 (KO-52 cells) [nM]
CCN(C(=O)c1cc(F)ccc1Oc1nncnc1N1CCC2(C1)CN([C@H](CCCNCC(OC)OC)C(C)C)C2)C(C)C.O=C(O)/C=C/C(=O)O [Compound 104, (R)-2-((5-(2-(6-((2,2-dimethoxyethyl)amino)-2-methylhexan-3-yl)-2,6-diazaspiro[3.4]octan-6-yl)-1,2,4-triazin-6-yl)oxy)-N-ethyl-5-fluoro-N-isopropylbenzamide fumarate]	0.074	6.7	150	15	8.7	6.1	< 7.5	10700
COCCNCCC[C@H](C(C)C)N1CC2(CCN(c3ncnnc3Oc3ccc(F)cc3C(=O)N(C(C)C)C(C)C)C2)C1 (single isomer, unassigned) [Compound 99, (*R)-5-fluoro-N,N-isopropyl-2-((5-(2-(6-((2-methoxyethyl)amino)-2-methylhexan-3-yl)-2,6-diazaspiro[3.4]octan-6-yl)-1,2,4-triazin-6-yl)oxy)benzamide oxalate]	0.2	8.5	82	26	–	–	13	11500
CCN(C(=O)c1cc(F)ccc1Oc1nncnc1N1CCC2(C1)CN([C@H](CCCN(C)CCNC(C)=O)C(C)C)C2)C(C)C.O=C(O)/C=C/C(=O)O [Compound 245, (R)-2-((5-(2-(6-((2-acetamidoethyl)(methyl)amino)-2-methylhexan-3-yl)-2,6-diazaspiro[3.4]octan-6-yl)-1,2,4-triazin-6-yl)oxy)-N-ethyl-5-fluoro-N-isopropylbenzamide fumarate]	0.26	73	430	140	7	< 1	< 7.5	> 15000
CCN(C(=O)c1cc(F)ccc1Oc1nncnc1N1CCC2(C1)CN([C@H](CCCNCCC(F)F)C(C)C)C2)C(C)C.O=C(O)/C=C/C(=O)O [Compound 114, (R)-2-(5-(2-(6-((3,3-difluoropropyl)amino)-2-methylhexan-3-yl)-2,6-diazaspiro[3.4]octan-6-yl)-1,2,4-triazin-6-yl)oxy)-N-ethyl-5-fluoro-N-isopropylbenzamide fumarate]	0.05	14	42	22	–	–	15	1690
